Assay: Stability in water at room temperature, LC-MS/MS peak areas over 16 h
Type: physicochemical
Details: 5 μg/mL, 0-16 h
From the text: The stability of native Piperacillin as well as its hydrolyzed forms was investigated (compounds 5, 9a, 9b and 10, respectively. From the hydrolysis pathway of Piperacillin (compound 5, see schematic drawing in FIG. 1) it is obvious that this compound hydrolyzed both on the piperazin ring and the lactam moiety, only one of both compounds is monitored to account for the loss or degradation of native Piperacillin (compound 5)). To this end, these compounds were freshly weighed and dissolved in water at a concentration of 1 mg/mL by rolling or stirring for 15 minutes at room temperature. Subsequently, these compounds were diluted to 5 μg/mL and measured with a suitable LC-MS/MS method at timepoints 0, 2, 4, 6, 8 and 16 h. For this, a Sunshell C18 (2.6 μm, 2.1 mm×50 mm) column with Solvent A: water with 0.1% HCOOH and Solvent B: CH3CN with 0.1% HCOOH and a flow of 0.6 mL per minute were used on an Agilent Infinity II multisampler/Pump system connected to an AB Sciex 6500+MS. The peaks were integrated using MultiQuant software and the areas of these peaks depicted in the graphs in FIGS. 2A and 2B.
The stability of double butylamide variants of Piperacillin (compound 7, see FIG. 4) was investigated at 2 MRMs using the identical protocol as in Examples 1.

CCN1CCN(C(=O)N[C@@H](C(=O)N[C@@H]2C(=O)N3[C@@H]2SC(C)(C)[C@@H]3C(=O)O)c2ccccc2)C(=O)C1=O [Piperacillin]
course of obtained peak-areas over time: decreasing

Reference: patent US12704504B2, “Derivatization of beta-lactam antibiotics as calibrators/ISTD in massspec measurements” (Roche Diagnostics Operations, Inc., priority 2019, dated 2026)
